Source: patent US6737383B1, “Herbicidal oxadiazolidines” (priority 1999, dated 2004)

Legend:
sugar beet = experiment: Test B pre/postemergence sugar beet; format: in vivo, Beta vulgaris
Summary of the method: (§1)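 Herbicidal effect was estimated by eye on a ten-point control scale after plants spent twelve to sixteen days in a greenhouse following soil or foliar treatment. Foliar sprays targeted plants at one to four leaves; all doses were formulated in a non-phytotoxic solvent with surfactant.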

surinam grass = experiment: Test B pre/postemergence surinam grass; format: in vivo, Brachiaria decumbens
Summary of the method: as §1

wild oat = experiment: Test B pre/postemergence wild oat; format: in vivo, Avena fatua
Summary of the method: as §1

purple nutsedge = experiment: Test B pre/postemergence purple nutsedge; format: in vivo, Cyperus rotundus
Summary of the method: as §1

wheat = experiment: Test B pre/postemergence wheat; format: in vivo, Triticum aestivum
Summary of the method: as §1

velvetleaf = experiment: Test B pre/postemergence velvetleaf; format: in vivo, Abutilon theophrasti
Summary of the method: as §1

cocklebur = experiment: Test B pre/postemergence cocklebur; format: in vivo, Xanthium strumarium
Summary of the method: as §1

blackgrass = experiment: Test B pre/postemergence blackgrass; format: in vivo, Alopecurus myosuroides
Summary of the method: as §1

pigweed = experiment: Test B pre/postemergence pigweed; format: in vivo, Amaranthus retroflexus
Summary of the method: as §1

crabgrass = experiment: Test B pre/postemergence crabgrass; format: in vivo, Digitaria sanguinalis
Summary of the method: as §1

giant foxtail = experiment: Test B pre/postemergence giant foxtail; format: in vivo, Setaria faberii
Summary of the method: as §1

corn = experiment: Test B pre/postemergence corn; format: in vivo, Zea mays
Summary of the method: as §1

rape = experiment: Test B pre/postemergence rape; format: in vivo, Brassica napus
Summary of the method: as §1

bedstraw = experiment: Test B pre/postemergence bedstraw; format: in vivo, Galium aparine
Summary of the method: as §1

soybean = experiment: Test B pre/postemergence soybean; format: in vivo, Glycine max
Summary of the method: as §1

morningglory = experiment: Test B pre/postemergence morningglory; format: in vivo, Ipomoea hederacea
Summary of the method: as §1

[1] = Postemergence, Rate 62 g/ha, scale of 0 to 10, 0 is no effect, 10 is complete control
[2] = Postemergence, Rate 125 g/ha, scale 0 to 10, 0 is no effect, 10 is complete control
[3] = Postemergence, Rate 500 g/ha, scale 0 to 10, 0 is no effect, 10 is complete control
[4] = Preemergence, Rate 62 g/ha, scale 0 to 10 (0 no effect, 10 complete control)
[5] = Preemergence, Rate 125 g/ha, scale 0 to 10, 0 is no effect, 10 is complete control
[6] = Rate 250 g/ha, Postemergence, scale of 0 to 10 where 0 is no effect and 10 is complete control
[7] = Preemergence, Rate 500 g/ha, scale of 0 to 10 where 0 is no effect and 10 is complete control

With `COC(=O)CCCn1c(=O)on(C(=O)N(c2ccc(Cl)cc2)C(C)C)c1=O` [Compound 543] the “Sugarbeets plant response rating” value (sugar beet; [1]) was 0, the “Sugarbeets plant response rating” value (sugar beet; [2]) was 0 and the “Plant response rating, Sugarbeets” value (sugar beet; [3]) was 3. For the same molecule, the “Sugarbeets plant response rating” value (sugar beet; [4]) was 4, the “Sugarbeets plant response rating” value (sugar beet; [5]) was 5 and the “Sugarbeets plant response rating (0 to 10 scale)” value (sugar beet; Preemergence, Rate 250 g/ha) was 6. The “Plant response rating, Sugarbeets” value (sugar beet; [6]) was 2, the “B. signalgrass plant response rating” value (surinam grass; [1]) was 0 and the “B. signalgrass plant response rating” value (surinam grass; [2]) was 0. For the same molecule, the “Plant response rating, B. signalgrass” value (surinam grass; [3]) was 3, the “B. signalgrass plant response rating” value (surinam grass; [4]) was 0 and the “B. signalgrass plant response rating” value (surinam grass; [5]) was 4. The “B. signalgrass plant response rating (0 to 10 scale, 0 is no effect, 10 is complete control)” value (surinam grass; Preemergence, Rate 250 g/ha) was 4, the “B. signalgrass plant response rating” value (surinam grass; [7]) was 6 and the “Plant response rating, B. signalgrass” value (surinam grass; [6]) was 3. For the same molecule, the “Wild oats plant response rating” value (wild oat; [1]) was 0, the “Wild oats plant response rating” value (wild oat; [2]) was 0 and the “Plant response rating, Wild oats” value (wild oat; [3]) was 3. For the same molecule, the “Wild oats plant response rating” value (wild oat; [4]) was 0, the “Wild oats plant response rating” value (wild oat; [5]) was 0 and the “Wild oats plant response rating (0 to 10 scale)” value (wild oat; Preemergence, Rate 250 g/ha) was 0. The “Wild oats plant response rating” value (wild oat; [7]) was 0, the “Plant response rating, Wild oats” value (wild oat; [6]) was 0 and the “Nutsedge plant response rating” value (purple nutsedge; [1]) was 0. The “Nutsedge plant response rating” value (purple nutsedge; [2]) was 0, the “Plant response rating, Nutsedge” value (purple nutsedge; [3]) was 0 and the “Nutsedge plant response rating” value (purple nutsedge; [4]) was 0. For the same molecule, the “Nutsedge plant response rating” value (purple nutsedge; [5]) was 0, the “Nutsedge plant response rating (0 to 10 scale)” value (purple nutsedge; Preemergence, Rate 250 g/ha) was 0 and the “Nutsedge plant response rating” value (purple nutsedge; [7]) was 8. For the same molecule, the “Plant response rating, Nutsedge” value (purple nutsedge; [6]) was 0, the “Wheat plant response rating” value (wheat; [1]) was 0 and the “Wheat plant response rating” value (wheat; [2]) was 0. The “Plant response rating, Wheat” value (wheat; [3]) was 0, the “Wheat plant response rating” value (wheat; [4]) was 0 and the “Wheat plant response rating” value (wheat; [5]) was 0. The “Wheat plant response rating (0 to 10 scale)” value (wheat; Preemergence, Rate 250 g/ha) was 0, the “Wheat plant response rating” value (wheat; [7]) was 0 and the “Plant response rating, Wheat” value (wheat; [6]) was 0. For the same molecule, the “Velvetleaf plant response rating” value (velvetleaf; [1]) was 0, the “Velvetleaf plant response rating” value (velvetleaf; [2]) was 0 and the “Plant response rating, Velvetleaf” value (velvetleaf; [3]) was 3. For the same molecule, the “Velvetleaf plant response rating” value (velvetleaf; [4]) was 0, the “Velvetleaf plant response rating” value (velvetleaf; [5]) was 0 and the “Velvetleaf plant response rating (0 to 10 scale)” value (velvetleaf; Preemergence, Rate 250 g/ha) was 0. For the same molecule, the “Velvetleaf plant response rating” value (velvetleaf; [7]) was 0, the “Plant response rating, Velvetleaf” value (velvetleaf; [6]) was 0 and the “Cocklebur plant response rating” value (cocklebur; [1]) was 0. For the same molecule, the “Cocklebur plant response rating” value (cocklebur; [2]) was 0, the “Plant response rating, Cocklebur” value (cocklebur; [3]) was 1 and the “Cocklebur plant response rating” value (cocklebur; [5]) was 0. For the same molecule, the “Cocklebur plant response rating (0 to 10 scale)” value (cocklebur; Preemergence, Rate 250 g/ha) was 0, the “Cocklebur plant response rating” value (cocklebur; [7]) was 10 and the “Plant response rating, Cocklebur” value (cocklebur; [6]) was 0. The “Blackgrass plant response rating” value (blackgrass; [1]) was 0, the “Blackgrass plant response rating” value (blackgrass; [2]) was 0 and the “Plant response rating, Blackgrass” value (blackgrass; [3]) was 2. The “Blackgrass plant response rating” value (blackgrass; [4]) was 0, the “Blackgrass plant response rating” value (blackgrass; [5]) was 0 and the “Blackgrass plant response rating (0 to 10 scale)” value (blackgrass; Preemergence, Rate 250 g/ha) was 0. The “Blackgrass plant response rating” value (blackgrass; [7]) was 2, the “Plant response rating, Blackgrass” value (blackgrass; [6]) was 0 and the “Redroot pigweed plant response rating” value (pigweed; [1]) was 0. The “Redroot pigweed plant response rating” value (pigweed; [2]) was 0, the “Plant response rating, Redroot pigweed” value (pigweed; [3]) was 0 and the “Redroot pigweed plant response rating” value (pigweed; [4]) was 7. For the same molecule, the “Redroot pigweed plant response rating” value (pigweed; [5]) was 7, the “Redroot pigweed plant response rating (0 to 10 scale)” value (pigweed; Preemergence, Rate 250 g/ha) was 9 and the “Plant response rating, Redroot pigweed” value (pigweed; [6]) was 0. The “Crabgrass plant response rating” value (crabgrass; [1]) was 0, the “Plant response rating, Crabgrass” value (crabgrass; [3]) was 7 and the “Crabgrass plant response rating” value (crabgrass; [4]) was 4. For the same molecule, the “Crabgrass plant response rating” value (crabgrass; [5]) was 4, the “Crabgrass plant response rating (0 to 10 scale)” value (crabgrass; Preemergence, Rate 250 g/ha) was 6 and the “Plant response rating, Crabgrass” value (crabgrass; [6]) was 3. For the same molecule, the “Giant foxtail plant response rating” value (giant foxtail; [1]) was 0, the “Giant foxtail plant response rating” value (giant foxtail; [2]) was 0 and the “Plant response rating, Giant foxtail” value (giant foxtail; [3]) was 3. The “Giant foxtail plant response rating” value (giant foxtail; [4]) was 3, the “Giant foxtail plant response rating” value (giant foxtail; [5]) was 3 and the “Giant foxtail plant response rating (0 to 10 scale)” value (giant foxtail; Preemergence, Rate 250 g/ha) was 9. For the same molecule, the “Giant foxtail plant response rating” value (giant foxtail; [7]) was 9, the “Plant response rating, Giant foxtail” value (giant foxtail; [6]) was 0 and the “Corn plant response rating” value (corn; [1]) was 0. For the same molecule, the “Corn plant response rating” value (corn; [2]) was 0, the “Plant response rating, Corn” value (corn; [3]) was 0 and the “Corn plant response rating” value (corn; [4]) was 0. The “Corn plant response rating” value (corn; [5]) was 0, the “Corn plant response rating (0 to 10 scale)” value (corn; Preemergence, Rate 250 g/ha) was 0 and the “Corn plant response rating” value (corn; [7]) was 0. For the same molecule, the “Plant response rating, Corn” value (corn; [6]) was 0, the “Rape plant response rating” value (rape; [1]) was 0 and the “Rape plant response rating” value (rape; [2]) was 0. The “Plant response rating, Rape” value (rape; [3]) was 0, the “Rape plant response rating” value (rape; [4]) was 0 and the “Rape plant response rating” value (rape; [5]) was 0. The “Rape plant response rating (0 to 10 scale)” value (rape; Preemergence, Rate 250 g/ha) was 0, the “Rape plant response rating” value (rape; [7]) was 0 and the “Plant response rating, Rape” value (rape; [6]) was 0. For the same molecule, the “Bedstraw plant response rating” value (bedstraw; [1]) was 0, the “Bedstraw plant response rating” value (bedstraw; [2]) was 0 and the “Plant response rating, Bedstraw” value (bedstraw; [3]) was 2. For the same molecule, the “Bedstraw plant response rating” value (bedstraw; [5]) was 0, the “Bedstraw plant response rating (0 to 10 scale)” value (bedstraw; Preemergence, Rate 250 g/ha) was 0 and the “Bedstraw plant response rating” value (bedstraw; [7]) was 0. For the same molecule, the “Soybean plant response rating” value (soybean; [1]) was 0, the “Soybean plant response rating” value (soybean; [2]) was 2 and the “Plant response rating, Soybean” value (soybean; [3]) was 2. For the same molecule, the “Soybean plant response rating” value (soybean; [4]) was 0, the “Soybean plant response rating” value (soybean; [5]) was 0 and the “Soybean plant response rating (0 to 10 scale)” value (soybean; Preemergence, Rate 250 g/ha) was 2. For the same molecule, the “Soybean plant response rating” value (soybean; [7]) was 2, the “Plant response rating, Soybean” value (soybean; [6]) was 2 and the “Morningglory plant response rating” value (morningglory; [1]) was 1. For the same molecule, the “Morningglory plant response rating” value (morningglory; [2]) was 2, the “Plant response rating, Morningglory” value (morningglory; [3]) was 7 and the “Morningglory plant response rating” value (morningglory; [4]) was 0. The “Morningglory plant response rating” value (morningglory; [5]) was 0, the “Morningglory plant response rating (0 to 10 scale)” value (morningglory; Preemergence, Rate 250 g/ha) was 0 and the “Morningglory plant response rating” value (morningglory; [7]) was 0. For the same molecule, the “Plant response rating, Morningglory” value (morningglory; [6]) was 4.
